From US7893256B2, “Azabicycloalkane compounds” (Theravance, Inc., priority 2003, dated 2011)

Legend:
hM3 receptor = biological target: T1, hM3 receptor (Homo sapiens, UniProt P20309); assay: Blockade of agonist-mediated calcium release via FLIPR assays (Assay Test Procedure D, C); format: cell-based; details: CHO cells stably expressing the hM3 receptor
T1 construct: expressed in transfected cells
Description: Muscarinic receptor subtypes (M1, M3 and M5 receptors), which couple to Gq proteins, activate the phospholipase C (PLC) pathway upon agonist binding to the receptor. As a result, activated PLC hydrolyzes phosphatyl inositol diphosphate (PIP2) to diacylglycerol (DAG) and […] (IP3), which in turn generates calcium release from intracellular stores, i.e., endoplasmic and sarcoplasmic reticulum. The FLIPR (Molecular Devices, Sunnyvale, Calif.) assay capitalizes on this increase in intracellular calcium by using a calcium sensitive dye (Fluo-4AM, Molecular Probes, Eugene, Oreg.) that fluoresces when free calcium binds. This fluorescence event is measured in real time by the FLIPR, which detects the change in fluorescence from a monolayer of cells cloned with human M1 and M3, and chimpanzee M5 receptors. Antagonist potency can be determined by the ability of antagonists to inhibit agonist-mediated increases in intracellular calcium. […]
To determine antagonist potency, the dose-dependent stimulation of intracellular Ca^2+ release for oxotremorine was first determined so that antagonist potency can later be measured against oxotremorine stimulation at an EC90 concentration. […]
The change of fluorescence is expressed as maximum fluorescence minus baseline fluorescence for each well. […]

hM2 receptor = biological target: T2, hM2 receptor (Homo sapiens, UniProt P08172); assay: Blockade of agonist-mediated inhibition of cAMP accumulation (Assay Test Procedure D, A); format: cell-based; details: CHO-K1 cells expressing the hM2 receptor; read-out: Ki value for blockade of oxotremorine-inhibition of forskolin-mediated cAMP accumulation
T2 construct: expressed in transfected cells; host or cells: CHO-K1 cells
T2 sequence (P08172 1-466): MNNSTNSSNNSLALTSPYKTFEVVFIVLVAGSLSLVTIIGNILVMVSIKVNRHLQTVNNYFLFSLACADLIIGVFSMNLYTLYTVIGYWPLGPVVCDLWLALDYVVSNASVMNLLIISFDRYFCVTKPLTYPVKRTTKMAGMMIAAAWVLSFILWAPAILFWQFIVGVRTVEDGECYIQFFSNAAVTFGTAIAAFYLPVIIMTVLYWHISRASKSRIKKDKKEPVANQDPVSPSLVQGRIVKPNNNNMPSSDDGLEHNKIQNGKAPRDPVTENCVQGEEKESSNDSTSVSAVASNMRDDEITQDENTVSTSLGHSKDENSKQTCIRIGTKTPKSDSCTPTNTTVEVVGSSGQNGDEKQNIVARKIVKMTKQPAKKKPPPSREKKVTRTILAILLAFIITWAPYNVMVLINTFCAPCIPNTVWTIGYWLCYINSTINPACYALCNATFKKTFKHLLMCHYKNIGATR
Method: In this assay, the functional potency of a test compound was determined by measuring the ability of the test compound to block oxotremorine-inhibition of forskolin-mediated cAMP accumulation in CHO-K1 cells expressing the hM2 receptor. cAMP assays were performed in a radioimmunoassay format using the Flashplate Adenylyl Cyclase Activation Assay System with ^125I-cAMP (NEN SMP004B, PerkinElmer Life Sciences Inc., Boston, Mass.), according to the manufacturer's instructions. Cells were rinsed once with dPBS and lifted with Trypsin-EDTA solution (0.05% trypsin/0.53 mM EDTA) as described in the Cell Culture and Membrane Preparation section above. The detached cells were washed twice by centrifugation at 650×g for five minutes in 50 mL dPBS. The cell pellet was then re-suspended in 10 mL dPBS, and the cells were counted with a Coulter Z1 Dual Particle Counter (Beckman Coulter, Fullerton, Calif.). […]
Reactions were incubated for 10 minutes at 37° C. and stopped by addition of 100 μL ice-cold detection buffer. Plates were sealed, incubated overnight at room temperature and counted the next morning on a PerkinElmer TopCount liquid scintillation counter (PerkinElmer Inc., Wellesley, Mass.). The amount of cAMP produced (pmol/well) was calculated based on the counts observed for the samples and cAMP standards, as described in the manufacturer's user manual. […]

T1 sequence (P20309 whole entry): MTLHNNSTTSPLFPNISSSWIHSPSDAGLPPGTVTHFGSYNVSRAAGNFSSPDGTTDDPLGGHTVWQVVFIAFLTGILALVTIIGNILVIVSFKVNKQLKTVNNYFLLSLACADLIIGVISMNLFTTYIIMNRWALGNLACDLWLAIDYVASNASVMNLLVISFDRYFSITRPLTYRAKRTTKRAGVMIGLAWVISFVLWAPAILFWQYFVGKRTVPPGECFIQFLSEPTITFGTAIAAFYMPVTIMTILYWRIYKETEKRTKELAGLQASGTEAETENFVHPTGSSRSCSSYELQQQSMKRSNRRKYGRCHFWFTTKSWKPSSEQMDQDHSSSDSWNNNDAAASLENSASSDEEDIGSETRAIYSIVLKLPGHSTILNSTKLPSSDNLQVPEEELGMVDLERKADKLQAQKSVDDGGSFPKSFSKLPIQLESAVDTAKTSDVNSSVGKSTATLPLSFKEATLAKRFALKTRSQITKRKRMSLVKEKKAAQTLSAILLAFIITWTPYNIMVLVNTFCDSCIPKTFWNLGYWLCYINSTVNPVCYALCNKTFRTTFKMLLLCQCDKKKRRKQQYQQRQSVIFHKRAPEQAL

C[N+]1(CCCCCCCCCNC[C@H](O)c2ccc(O)c3[nH]c(=O)ccc23)C2CC(OC(=O)C(O)(c3cccs3)c3cccs3)CC1C1OC12.C[N+]1(CCCCCCCCCNC[C@H](O)c2ccc(O)c3[nH]c(=O)ccc23)C2CC(OC(=O)C(O)(c3cccs3)c3cccs3)CC1C1OC12.O=C([O-])C(F)(F)F.O=C([O-])C(F)(F)F (stereo partly drawn) [Example 1, 7-(2-Hydroxy-2,2-dithiophen-2-ylacetoxy)-9-{9-[(R)-2-hydroxy-2-(8-hydroxy-2-oxo-1,2-dihydroquinolin-5-yl)ethylamino]nonyl}-9-methyl-3-oxa-9-azonia-tricyclo[3.3.1.0^2,4]nonane Ditrifluoroacetate]
Ki (hM3 receptor): < 0.05 µM | Ki (hM2 receptor): < 0.05 µM
